According to US11851449B2, “Heterocyclic amide compounds having an RORvt inhibitory action” (TAKEDA PHARMACEUTICAL COMPANY LIMITED, priority 2013, dated 2023):
Like-named read-outs stand apart in the source and are kept apart here.

What was measured:
[1] = target: T1, RORγt (Homo sapiens, UniProt P51449); assay: Jurkat reporter test (human IL-17 ROR response element luciferase reporter); format: cell-based; conditions: read-out: luminescence level inhibitory rate (%) at test compound 3 μM
T1 sequence (P51449 1-497 isoform P51449-2): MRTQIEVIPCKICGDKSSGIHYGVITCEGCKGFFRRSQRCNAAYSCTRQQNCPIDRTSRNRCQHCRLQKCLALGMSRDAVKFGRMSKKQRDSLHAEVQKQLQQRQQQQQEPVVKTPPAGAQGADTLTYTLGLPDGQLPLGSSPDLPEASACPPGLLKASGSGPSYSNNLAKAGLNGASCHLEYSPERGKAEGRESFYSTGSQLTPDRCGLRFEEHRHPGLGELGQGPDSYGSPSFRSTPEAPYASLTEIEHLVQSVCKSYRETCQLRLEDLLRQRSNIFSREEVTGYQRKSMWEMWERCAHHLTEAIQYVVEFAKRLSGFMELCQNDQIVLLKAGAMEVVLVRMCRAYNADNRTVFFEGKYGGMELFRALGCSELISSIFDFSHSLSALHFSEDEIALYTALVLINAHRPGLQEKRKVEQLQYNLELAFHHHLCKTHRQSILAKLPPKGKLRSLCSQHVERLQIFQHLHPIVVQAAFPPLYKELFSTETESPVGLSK
Procedure: The Jurkat cells used for the reporter test were cultured in a culture medium (RPMI (Invitrogen), 10% FCS (AusGeneX), 100 U/mL penicillin, 100 μg/mL streptomycin). On the day of the test, 4×10^7 cells were recovered by a centrifugal operation (1000 rpm, 5 min.) and suspended in PBS (phosphate buffered saline) (Invitrogen). Thereafter, the cells were recovered again by a centrifugal operation, and suspended in 2 mL of R buffer (NEON transfection kit, Invitrogen). […] Gene transfer was performed by Electroporation apparatus (NEON, Invitrogen) under the conditions of pulse voltage 1350 V, interval 10 milliseconds, number of times 3. The cells after gene transfer were suspended in 40 mL of a reaction medium (RPMI, 10% Lipid reduced FCS (HyClone), 10 mM HEPES (pH 7.5), 100 U/mL penicillin, 100 μg/mL streptomycin, 5 μM lovastatin), and plated in a 96 well plate by 90 μL. A test compound diluted with the reaction medium was added by 10 μL, and the cells were cultured overnight in an incubator. Bright-Glo (Promega) was added by 100 μL, and the mixture was stirred at room temperature for 10 min, and the luminescence level was measured by Envision (PerkinElmer).

[2] = target: T1, RORγt; assay: RORγt binding test (TR-FRET, fluorescent-labeled cholesterol); conditions: read-out: binding inhibitory rate (%) of fluorescent-labeled cholesterol to RORγt at test compound 1 μM
Procedure: The binding activity of the test compound to RORγt was measured by a time resolved fluorescence resonance energy transfer method (TR-FRET) utilizing histidine-tagged RORγt, fluorescent-labeled cholesterol (BODIPY-cholesterol, AVIVA), and terbium-labeled anti-histidine tag antibody (Invitrogen). First, a test compound diluted with an assay buffer (20 mM Tris-HCl (pH 7.5), 100 mM NaCl, 1 mM DTT, 0.1% BSA) was added to a 384 well plate by 3 μL. Then, RORγt diluted with an assay buffer to 240 nM was added by 3 μL, after which fluorescent-labeled cholesterol diluted with the assay buffer to 12 μM was added by 3 μL, and the mixture was stood at room temperature for 20 min. Thereafter, a terbium-labeled anti-histidine tag antibody diluted with the assay buffer to 8 nM was added by 3 μL. The mixture was stood at room temperature for 20 min, and fluorescence intensity (excitation wavelength 320 nm, fluorescence wavelength 520 nm, delay time 100 microseconds) was measured by Envision (PerkinElmer).

[3] = target: T1, RORγt; assay: Cofactor recruitment test (Alpha Screen, biotinylated SRC-1 peptide); format: biochemical; conditions: read-out: signal value inhibitory rate (%) at test compound 1 μM
Procedure: Cofactor Recruitment Test
Cofactor recruitment test was performed by Alpha Screen (Histidine Detection Kit, PerkinElmer) method. First, a test compound was diluted with an assay buffer (50 mM Tris-HCl (pH 7.5), 50 mM KCl, 1 mM DTT, 0.1% BSA) and added to a 384 well plate by 5 μL. […] The mixture was stood in a dark place for 1 hr, and the signal value was measured by Envision (PerkinElmer).

[4] = test compound 3 μM, Jurkat cells

| inhibition at 3 µM [1, 4] [%] | SMILES | inhibition at 3 µM ([1]; Jurkat) [%] | inhibition at 1 µM [2] [%] | inhibition at 1 µM [3] [%] |
| --- | --- | --- | --- | --- |
|  | COCc1ccc(C(NC(=O)Cn2cnccc2=O)C(=O)Nc2ccc([Si](C)(C)C)c(F)c2)cc1 (stereo not drawn) [Example 36, N-(3-fluoro-4-(trimethylsilyl)phenyl)-2-(4-(methoxymethyl)phenyl)-2-(((6-oxopyrimidin-1(6H)-yl)acetyl)amino)acetamide] | 99.8 | 96.2 | 98.2 |
|  | COCc1ccc([C@@H](NC(=O)Cc2cc(O)no2)C(=O)Nc2cc(F)c([Si](C)(C)C)c(F)c2)cc1 [Example 76, (2R)—N-(3,5-difluoro-4-(trimethylsilyl)phenyl)-2-(((3-hydroxy-1,2-oxazol-5-yl)acetyl)amino)-2-(4-(methoxymethyl)phenyl)acetamide] | 99.3 | 103 | 98.5 |
| 99.5 | COCc1ccc([C@@H](NC(=O)[C@@H]2CNC(=O)C2)C(=O)Nc2ccc(C(C)(C)C)c(F)c2)cc1 [Example 101, (3S)—N-((1R)-2-((4-tert-butyl-3-fluorophenyl)amino)-1-(4-(methoxymethyl)phenyl)-2-oxoethyl)-5-oxopyrrolidine-3-carboxamide] |  | 101 | 87.6 |
|  | COc1ccc([C@@H](NC(=O)N2CC[C@H](O)C2)C(=O)Nc2ccc([Si](C)(C)C)c(F)c2)cc1 [Example 64, (3S)—N-((1R)-2-((3-fluoro-4-(trimethylsilyl)phenyl)amino)-1-(4-methoxyphenyl)-2-oxoethyl)-3-hydroxypyrrolidine-1-carboxamide] | 98.7 | 102 | 90.1 |
|  | Cn1ncc2cc([C@@H](NC(=O)[C@@H]3CNC(=O)C3)C(=O)Nc3ccc([Si](C)(C)C)c(F)c3)ccc21 [Example 112, (3S)—N-((1R)-2-((3-fluoro-4-(trimethylsilyl)phenyl)amino)-1-(1-methyl-1H-indazol-5-yl)-2-oxoethyl)-5-oxopyrrolidine-3-carboxamide] | 100 | 103 | 83.2 |
|  | COCc1ccc(C(NC(=O)N2CCC(O)C2)C(=O)Nc2ccc([Si](C)(C)C)c(F)c2)cc1 (stereo not drawn) [Example 33, N-(2-((3-fluoro-4-(trimethylsilyl)phenyl)amino)-1-(4-(methoxymethyl)phenyl)-2-oxoethyl)-3-hydroxypyrrolidine-1-carboxamide] | 98.4 | 101 | 97.7 |
|  | COCc1ccc([C@@H](NC(=O)CS(C)(=O)=O)C(=O)Nc2ccc([Si](C)(C)C)c(F)c2)cc1 [Example 81, (2R)—N-(3-fluoro-4-(trimethylsilyl)phenyl)-2-(4-(methoxymethyl)phenyl)-2-(((methylsulfonyl)acetyl)amino)acetamide] | 98.3 | 103 | 94.9 |
|  | COCc1ccc([C@@H](NC(=O)CCO)C(=O)Nc2cc(F)c([Si](C)(C)C)c(F)c2)cc1 [Example 72, N-((1R)-2-((3,5-difluoro-4-(trimethylsilyl)phenyl)amino)-1-(4-(methoxymethyl)phenyl)-2-oxoethyl)-3-hydroxypropanamide] | 99.2 | 102 | 96.7 |
| 95.3 | CC(C)(C)c1ccc(NC(=O)[C@H](NC(=O)[C@@H](O)C(F)(F)F)C2CCOCC2)cc1Cl [Example 10, N-((1R)-2-((4-tert-butyl-3-chlorophenyl)amino)-2-oxo-1-(tetrahydro-2H-pyran-4-yl)ethyl)-3,3,3-trifluoro-2-hydroxypropanamide] |  | 102 | 2.04 |
|  | COCc1ccc([C@@H](NC(=O)CCS(C)(=O)=O)C(=O)Nc2ccc([Si](C)(C)C)c(F)c2)cc1 [Example 80, N-((1R)-2-((3-fluoro-4-(trimethylsilyl)phenyl)amino)-1-(4-(methoxymethyl)phenyl)-2-oxoethyl)-3-(methylsulfonyl)propanamide] | 100 | 102 | 93.8 |
